# Results reported in patent publication US7420056B2, “Substituted bicyclic imidazo-3-ylamine compounds” (Gruenenthal GmbH, priority 2004, dated 2008).
# Structures can show the parent of a compound that is named as a salt.
# Target: mGluR5 receptor (Sus scrofa, UniProt I3LUI7)
# Experiment: Affinity for the mGluR5 receptor: inhibition of 3[H]-MPEP binding in pig brain homogenate
# Conditions: for IC50: 3[H]-MPEP binding; for inhibition at 10 µM: 10 μM compound, 5 nM 3[H]-MPEP, read-out: mGluR5 receptor inhibition of ^3[H]-MPEP binding [10 μM] in % at a concentration of the example compounds of 10 μM
# Summary of the method: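 Test compounds were screened at 10 μM for displacement of 5 nM [3H]-MPEP from pig brain homogenate (450 μg protein, pH 8.0 Hepes buffer) over 60 min at room temperature. After filtration, scintillation counting gave the read-out. 10 μM unlabelled MPEP set nonspecific binding.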
# Sequence of mGluR5 receptor (I3LUI7 19-1212): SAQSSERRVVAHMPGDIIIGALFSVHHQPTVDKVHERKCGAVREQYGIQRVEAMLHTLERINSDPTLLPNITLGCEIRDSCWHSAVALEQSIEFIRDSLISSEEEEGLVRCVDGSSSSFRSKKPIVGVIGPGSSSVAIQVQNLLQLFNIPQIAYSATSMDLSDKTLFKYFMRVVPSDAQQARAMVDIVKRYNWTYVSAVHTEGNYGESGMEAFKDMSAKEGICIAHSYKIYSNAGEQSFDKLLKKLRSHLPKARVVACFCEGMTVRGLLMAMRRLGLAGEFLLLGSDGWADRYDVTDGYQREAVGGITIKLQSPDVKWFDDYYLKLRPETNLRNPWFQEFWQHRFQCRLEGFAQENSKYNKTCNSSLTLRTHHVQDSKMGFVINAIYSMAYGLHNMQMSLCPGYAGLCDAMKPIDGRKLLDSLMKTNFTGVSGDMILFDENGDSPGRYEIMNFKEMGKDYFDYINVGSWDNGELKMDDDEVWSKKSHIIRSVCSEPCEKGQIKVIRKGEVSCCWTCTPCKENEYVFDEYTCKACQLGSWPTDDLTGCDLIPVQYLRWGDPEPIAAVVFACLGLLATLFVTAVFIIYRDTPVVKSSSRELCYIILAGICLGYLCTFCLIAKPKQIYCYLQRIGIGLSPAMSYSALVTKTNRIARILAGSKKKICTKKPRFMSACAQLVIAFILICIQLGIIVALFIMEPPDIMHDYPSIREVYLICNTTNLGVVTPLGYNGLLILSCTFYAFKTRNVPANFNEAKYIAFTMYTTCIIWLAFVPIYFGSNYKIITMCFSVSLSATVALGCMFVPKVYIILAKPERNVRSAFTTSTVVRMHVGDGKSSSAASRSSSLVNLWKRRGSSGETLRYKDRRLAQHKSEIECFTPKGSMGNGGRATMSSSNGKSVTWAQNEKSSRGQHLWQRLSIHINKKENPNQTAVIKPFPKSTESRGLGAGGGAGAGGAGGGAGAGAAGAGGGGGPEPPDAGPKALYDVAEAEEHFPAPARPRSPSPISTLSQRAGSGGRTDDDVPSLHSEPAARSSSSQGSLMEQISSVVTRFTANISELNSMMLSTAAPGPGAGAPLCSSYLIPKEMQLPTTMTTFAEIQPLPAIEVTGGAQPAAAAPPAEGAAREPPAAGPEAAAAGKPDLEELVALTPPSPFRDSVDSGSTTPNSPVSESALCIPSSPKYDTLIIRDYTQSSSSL
IC50 [nM],inhibition at 10 µM [%],SMILES
33,–,"Cc1cccc(C#Cc2ccc(-c3nc4cnccn4c3NC(C)(C)C)s2)n1 [Example 158, N-tert-butyl-2-(5-((6-methylpyridin-2-yl)ethynyl)thiophen-2-yl)imidazo[1,2-a]pyrazin-3-amine hydrochloride]"
10,–,"CC(C)(C)Nc1c(-c2ccc(C#Cc3ncccc3F)s2)nc2cnccn12 [Example 159, N-tert-butyl-2-(5-((3-fluoropyridin-2-yl)ethynyl)thiophen-2-yl)imidazo[1,2-a]pyrazin-3-amine hydrochloride]"
94,–,"CNc1cccc(C#Cc2ccc(-c3nc4cnccn4c3NC(C)(C)C)s2)c1 [Example 160, N-tert-butyl-2-(5-((3-(methylamino)phenyl)ethynyl)thiophen-2-yl)imidazo[1,2-a]pyrazin-3-amine hydrochloride]"
7740,–,"Cc1ccc(C#Cc2ccc(-c3nc4cnccn4c3NC(C)(C)C)s2)cc1 [Example 161, N-tert-butyl-2-(5-(p-tolylethynyl)thiophen-2-yl)imidazo[1,2-a]pyrazin-3-amine]"
4240,–,"Cc1ccccc1C#Cc1ccc(-c2nc3cnccn3c2NC(C)(C)C)s1 [Example 162, N-tert-butyl-2-(5-(o-tolylethynyl)thiophen-2-yl)imidazo[1,2-a]pyrazin-3-amine hydrochloride]"
54,–,"Cc1cc(-c2nc3cnccn3c2NC(C)(C)C)sc1C#Cc1ccccn1 [Example 164, N-tert-butyl-2-(4-methyl-5-(pyridin-2-ylethynyl)thiophen-2-yl)imidazo[1,2-a]pyrazin-3-amine hydrochloride]"
18,–,"CC(C)(C)Nc1c(-c2ccc(C#Cc3cccc(F)n3)s2)nc2cnccn12 [Example 165, N-tert-butyl-2-(5-((6-fluoropyridin-2-yl)ethynyl)thiophen-2-yl)imidazo[1,2-a]pyrazin-3-amine]"
11300,–,"CC(C)(C)Nc1c(-c2ccc(C#Cc3ccccc3[N+](=O)[O-])s2)nc2cnccn12 [Example 166, N-tert-butyl-2-(5-((2-nitrophenyl)ethynyl)thiophen-2-yl)imidazo[1,2-a]pyrazin-3-amine]"
12,–,"CC(C)(C)Nc1c(-c2ccc(C#Cc3ccccn3)s2)nc2c(Cl)nccn12 [Example 167, N-tert-butyl-8-chloro-2-(5-(pyridin-2-ylethynyl)thiophen-2-yl)imidazo[1,2-a]pyrazin-3-amine]"
640,–,"COc1cccc(C#Cc2ccc(-c3nc4cnccn4c3NC(C)(C)C)s2)n1 [Example 168, N-tert-butyl-2-(5-((6-methoxypyridin-2-yl)ethynyl)thiophen-2-yl)imidazo[1,2-a]pyrazin-3-amine]"
11,–,"CC(C)(C)Nc1c(-c2ccc(C#Cc3ccc(F)cn3)s2)nc2cnccn12 [Example 169, N-tert-butyl-2-(5-((5-fluoropyridin-2-yl)ethynyl)thiophen-2-yl)imidazo[1,2-a]pyrazin-3-amine hydrochloride]"
360,–,"COc1cncc(C#Cc2ccc(-c3nc4cnccn4c3NC(C)(C)C)s2)c1 [Example 171, N-tert-butyl-2-(5-((5-methoxypyridin-3-yl)ethynyl)thiophen-2-yl)imidazo[1,2-a]pyrazin-3-amine hydrochloride]"
36,–,"CC(C)(C)Nc1c(-c2ccc(C#Cc3cncc(C#N)c3)s2)nc2cnccn12 [Example 172, 5-((5-(3-(tert-butylamino)imidazo[1,2-a]pyrazin-2-yl)thiophen-2-yl)ethynyl)nicotinonitrile hydrochloride]"
800,–,"CSc1cccc(C#Cc2ccc(-c3nc4cnccn4c3NC(C)(C)C)s2)c1 [Example 173, N-tert-butyl-2-(5-((3-(methylthio)phenyl)ethynyl)thiophen-2-yl)imidazo[1,2-a]pyrazin-3-amine]"
840,–,"COC(=O)c1cccc(C#Cc2ccc(-c3nc4cnccn4c3NC(C)(C)C)s2)c1 [Example 174, methyl-3-((5-(3-(tert-butylamino)imidazo[1,2-a]pyrazin-2-yl)thiophen-2-yl)ethynyl)benzoate]"
51,–,"CC(C)(C)Nc1c(-c2ccc(C#Cc3ncc(F)cc3F)s2)nc2cnccn12 [Example 175, N-tert-butyl-2-(5-((3,5-difluoropyridin-2-yl)ethynyl)thiophen-2-yl)imidazo[1,2-a]pyrazin-3-amine]"
16,–,"CC(C)(C)Nc1c(-c2cnc(C#Cc3ccncc3)s2)nc2cnccn12 [Example 177, N-tert-butyl-2-(2-(pyridin-4-ylethynyl)thiazol-5-yl)imidazo[1,2-a]pyrazin-3-amine]"
24,–,"CC(C)(C)Nc1c(-c2ccc(C#Cc3cccc(C=O)c3)s2)nc2cnccn12 [Example 178, 3-((5-(3-(tert-butylamino)imidazo[1,2-a]pyrazin-2-yl)thiophen-2-yl)ethynyl)benzaldehyde]"
26,–,"CC(C)(C)Nc1c(-c2ccc(C#Cc3cc(C#N)ccc3F)s2)nc2cnccn12 [Example 179, 3-((5-(3-(tert-butylamino)imidazo[1,2-a]pyrazin-2-yl)thiophen-2-yl)ethynyl)-4-fluorobenzonitrile]"

IC50 [nM],inhibition at 10 µM [%],SMILES
580,–,"CC(C)(C)Nc1c(-c2ccc(C#Cc3cccc(C(F)(F)F)c3)s2)nc2cnccn12 [Example 180, N-tert-butyl-2-(5-((3-(trifluoromethyl)phenyl)ethynyl)thiophen-2-yl)imidazo[1,2-a]pyrazin-3-amine hydrochloride]"
18,–,"CC(C)(C)Nc1c(-c2cnc(C#Cc3ccccn3)s2)nc2cnccn12 [Example 181, N-tert-butyl-2-(2-(pyridin-2-ylethynyl)thiazol-5-yl)imidazo[1,2-a]pyrazin-3-amine]"
8850,–,"Cc1cc(C#Cc2ccccc2)sc1-c1nc2cnccn2c1NC(C)(C)C [Example 182, N-tert-butyl-2-(3-methyl-5-(phenylethynyl)thiophen-2-yl)imidazo[1,2-a]pyrazin-3-amine hydrochloride]"
230,–,"Cc1cc(C#Cc2ccccn2)sc1-c1nc2cnccn2c1NC(C)(C)C [Example 183, N-tert-butyl-2-(3-methyl-5-(pyridin-2-ylethynyl)thiophen-2-yl)imidazo[1,2-a]pyrazin-3-amine hydrochloride]"
270,–,"C=Cc1cccc(C#Cc2ccc(-c3nc4cnccn4c3NC(C)(C)C)s2)c1 [Example 184, N-tert-butyl-2-(5-((3-vinylphenyl)ethynyl)thiophen-2-yl)imidazo[1,2-a]pyrazin-3-amine]"
190,–,"CC(C)(C)Nc1c(-c2ccc(C#Cc3c[nH]cn3)s2)nc2cnccn12 [Example 185, 2-(5-((1H-imidazol-4-yl)ethynyl)thiophen-2-yl)-N-tert-butylimidazo[1,2-a]pyrazin-3-amine hydrochloride]"
–,79,"Cc1cccc(C#Cc2cccc(-c3nc4ccc(Cl)cn4c3NC3CCCCC3)c2)n1 [Example 193, 6-chloro-N-cyclohexyl-2-(3-((6-methylpyridin-2-yl)ethynyl)phenyl)imidazo[1,2-a]pyridin-3-amine]"
–,30,"Cc1cc(C)n2c(NCCc3ccccc3)c(-c3ccc(C#Cc4ccccc4)s3)nc2n1 [Example 194, 5,7-dimethyl-N-phenethyl-2-(5-(phenylethynyl)thiophen-2-yl)imidazo[1,2-a]pyrimidin-3-amine]"
–,53,"COc1cccc(CCNc2c(-c3ccc(C#Cc4ccccc4)s3)nc3nc(C)cc(C)n23)c1 [Example 195, N-(3-methoxyphenethyl)-5,7-dimethyl-2-(5-(phenylethynyl)thiophen-2-yl)imidazo[1,2-a]pyrimidin-3-amine]"
–,68,"COc1cccc(CCNc2c(-c3cc(C#Cc4ccccc4)cs3)nc3nc(C)cc(C)n23)c1 [Example 196, N-(3-methoxyphenethyl)-5,7-dimethyl-2-(4-(phenylethynyl)thiophen-2-yl)imidazo[1,2-a]pyrimidin-3-amine]"
–,31,"COc1cccc(CCNc2c(-c3ccc(C#Cc4ccccc4)o3)nc3nc(C)cc(C)n23)c1 [Example 197, N-(3-methoxyphenethyl)-5,7-dimethyl-2-(5-(phenylethynyl)furan-2-yl)imidazo[1,2-a]pyrimidin-3-amine]"
–,67,"Cc1cccn2c(NCc3ccc(Cl)cc3)c(-c3ccc(C#Cc4ccccc4)s3)nc12 [Example 198, N-(4-chlorobenzyl)-8-methyl-2-(5-(phenylethynyl)thiophen-2-yl)imidazo[1,2-a]pyridin-3-amine]"
–,57,"COc1cccc(CCNc2c(-c3cc(C#Cc4ccccc4)cs3)nc3cccc(C)n23)c1 [Example 199, N-(3-methoxyphenethyl)-5-methyl-2-(4-(phenylethynyl)thiophen-2-yl)imidazo[1,2-a]pyridin-3-amine]"
–,62,"CCCCC(C)(C)Nc1c(-c2cc(C#Cc3ccccc3)cs2)nc2cnccn12 [Example 200, N-(2-methylhexan-2-yl)-2-(4-(phenylethynyl)thiophen-2-yl)imidazo[1,2-a]pyrazin-3-amine]"
–,55,"C(#Cc1csc(-c2nc3cnccn3c2NCCc2ccccc2)c1)c1ccccc1 [Example 201, N-phenethyl-2-(4-(phenylethynyl)thiophen-2-yl)imidazo[1,2-a]pyrazin-3-amine]"
–,70,"COc1cccc(CCNc2c(-c3cc(C#Cc4ccccc4)cs3)nc3cnccn23)c1 [Example 202, N-(3-methoxyphenethyl)-2-(4-(phenylethynyl)thiophen-2-yl)imidazo[1,2-a]pyrazin-3-amine]"
–,60,"C(#Cc1csc(-c2nc3cnccn3c2NCCc2cccs2)c1)c1ccccc1 [Example 203, 2-(4-(phenylethynyl)thiophen-2-yl)-N-(2-(thiophen-2-yl)ethyl)imidazo[1,2-a]pyrazin-3-amine]"
–,30,"Clc1ccc(CNc2c(-c3ccc(C#Cc4ccccc4)s3)nc3ccccn23)cc1 [Example 204, N-(4-chlorobenzyl)-2-(5-(phenylethynyl)thiophen-2-yl)imidazo[1,2-a]pyridin-3-amine]"
